Source: US6436705B1, “Shape stabilized erythrocytes” (The United States of America as represented by the …, priority 1997, dated 2002)

What was measured:
erythrocytes [1] = test: Methemoglobin formation during freeze-drying; type: cell-based; settings: CO-treated erythrocytes, FIG. 1
Excerpt: Freeze-drying of hemoglobin leads to the formation of significant amount of methemoglobin. Circular dichroism studies for samples of hemoglobin freeze-dried with or without protectant have shown that the absence of a protector weakly influences the confirmation in the vicinity of the heme and increases the helicity of protein chains (Thirion C et al., 1983). Freeze-drying hemoglobin without denaturing and oxidizing it was made possible by the use of carbohydrates (Labrude PB et al., 1980). […] Since red cell membrane is non-permeable to disaccharides and only lowly permeable to monosaccharides, this limits the use of carbohydrates as protectants for intracellular hemoglobin. We explored CO-treatment as a means to prevent methemoglobin formation during freeze-drying. CO-treatment stabilizes hemoglobin in the CO-hemoglobin form by liganding CO. […] To reverse the CO-treatment, a hollow fiber oxygenator can be used.

Red cells = test: Oxygen carrying ability (oxygen content by CO-oximeter); type: cell-based, human; settings: cells subjected to CO-treatment
Procedure: A semi-quantitative measure of oxygen carrying ability by DTBP cross-linked and reversed cells was performed. Red cells cross linked with 5 mM DTBP for different incubation times and cells reversed with DTT (see above) were processed through a membrane oxygenator to replace CO with oxygen. Oxygen saturation of the cells was measured using a CO-oximeter. After the oxygenation, cells were subjected to deoxygenation under a stream of nitrogen for 30 min. Percentage oxygen was measured again by the CO-oximeter. Oxygen binding and releasing properties for cross-linked, reversed and normal cells were compared.
We measured oxygen content (Vol%O2) of cells subjected to cross-linking and reversal with a CO-oximeter 282. […] CO-treated and cross-linked cells with 5 mM DTBP for 5 h, which underwent re-oxygenation in the membrane oxygenator had oxygen content of 7.3 Vol%O2.

Human erythrocytes [2] = test: Osmotic fragility test; type: cell-based; settings: cells treated for 1 h with 5 mM DTBP, reversed with DTT
Procedure: An osmotic fragility test (a common clinical test) was performed on erythrocytes cross-linked with 5 mM DTBP for different incubation times and on erythrocytes cross-linked and reversed with DTT. Briefly, 1 ml of the erythrocyte suspension was taken out at regular incubation times, centrifuged, and DTBP or DTT was removed (Eppendorf centrifuge for 3 min at 3000×g). 1 ml of solutions containing buffered sodium sodium chloride at different concentrations (from 1% to 0.1% NaCl in phosphate buffer) were added to the packed cells. After 30 min the samples were centrifugated (Eppendorf centrifuge for 3 min at 3000×g), and the supernatants were processed for hemolysis measurements.

Red blood cells [3] = test: Deformability measurements with an ektacytometer (Shear-scan, Osmo-scan); type: cell-based, human; settings: DTBP cross-linked cells after treatment with DTT; Osmo-scan
Procedure: Red blood cells were cross-linked with 5 mM DTBP for 1 h. Cross-linking was reversed with 10 mM DTT for 20 min. Deformability measurements were made with fresh untreated, cross-linked, and reversed cells as well as with untreated packed cells stored in CPDA-1 for 6 weeks at 4° C. The effects of cross-linking and reversal on red blood cell deformability were measured with an ektacytometer (Technicon).
The ektacytometer is a laser diffraction viscometer described in detail by Bessiss and Mohandas. Intact red blood cells and ghosts suspended in solution produce a diffuse circular laser diffraction pattern. The instrument takes advantage of the fact that when a shear force is applied to the solution crossing the beam the cells align in the direction of shear and begin deforming into uniformly oriented ellipsoids. The laser diffraction pattern then takes on an ellipsoidal shape oriented 90° from the major elliptical cell axis, with the ratio of the long axis to the short axis length determined by the degree of cell deformation. A signal proportional to mean cellular ellipticity is derived from photometric measurement of this laser diffraction pattern in the two axis directions and is designated the deformability index (DI).
Two types of deformability profiles were generated in the present experiments. […] Shear-scans were run with 40 μl of concentrated cell suspension (80% hematocrit) mixed with 3.0 ml of 3.1% (w/v) polyvinylpyrrolidone (P, av-MW 360 kD) solution containing 138 mM NaCl, 6.34 mM Na2HPO4, 2 mM NaH2PO4, and 0.04% (w/v) NaN3 with pH=7.35±0.05, osmolality=290 mOsmol/kg (by freezing point depression), and viscosity=20 cp (assumed). Osmo-scans were run by continuous addition of this suspension medium containing 100 μl of cells to a PVP solution with a graded salt concentration. Salt gradients were made by addition of high salt PVP solution with 386 mM NaCI (osmolality=750 mOsmol/kg) to a low salt PVP solution with 2.5 mM NaCl (osmolality=40 mOsmol/kg). Conductance measurements of the cell suspension in the viscometer provided an indirect measure of osmolality, which was calculated from a standard calibration curve.
Data was recorded onto a computer, and curves were fitted and plotted using custom routines in Matlab (The Math Works Inc, Natick, Mass.). Shear scans were fitted with a polynomial of degree 6 from which the maximum DI (DImax) was calculated. Osmo-scans were fitted with a running average, and DImax was calculated within the range of 180-240 mOsmol/Kg, along with the osmolality corresponding to 1/2DImax at hypertonic salt concentrations (0′), where DI decreases with increasing intracellular viscosity secondary to cell shrinkage and increased hemoglobin concentration (see Mohandas et al., J. Clin. Invest. 66563-73(1980)). The osmolality corresponding to the minimum DI (Omin) at hypotonic salt concentrations, where DI falls due to cell swelling, was also calculated. The height of the small DI peak thought to be associated with the sudden availability of excess membrane for deformation as intracellular ions and water are lost in the lower range of hypotonic salt (63-125 mOsmol/Kg) concentrations was also recorded (see Clark et al., Blood 61 899-910 (1983)).

Red blood cells [4] = test: Metabolic viability: ATP content of red blood cells over time; type: cell-based, human; settings: cross-linked cells treated with 10 mM DTT prior to initial glucose exposure
Procedure: The metabolic viability of cross-linked cells was assayed by monitoring the production and depletion of ATP over time. DTBP cells were cross-linked in 5 mM DTBP 150 mM glucose for 5 hours at 4° C. The cells were then washed 3 times and incubated in 150 mM glucose for an additional 19 hrs. After washing to remove the glucose the cells were incubated at 4° C. in PBS for 72 hrs before being returned to 150 mM glucose for the final 24 hr incubation. At each time point cells were removed, washed, and spectrophotometrically assayed for ATP as described in the text. The glucose controls were cells treated in the same manor but without crosslinking, and the control cells are cells without exposure to glucose.

Human erythrocytes [5] = test: cells; type: cell-based; settings: Homo sapiens, Erythrocyte, read-out: hemolysis in distilled water after cross-linking reversal
Procedure: Packed human erythrocytes from healthy donors were obtained from the National Naval Medical Center (Bethesda, Md.) within 48 h of donation and used within 7 days. Packed erythrocytes were washed twice in phosphate buffer solution (PBS) then re-suspended in PBS (1 vol PBS:1 vol packed cells). The erythrocyte suspension (100 ml) was placed on ice and carbon monoxide (CO) was bubbled through it for 2 hours. Saturation with CO (100%) was achieved under these conditions as detected with a CO-oximeter. Erythrocytes were packed and cross-linked with DTBP at 4° C. for different incubation times (from 1 to 24 h; 9 vol cross-linking solution: 1 vol packed cells). The cross-linking solution was prepared by dissolving DTBP in PBS (pH 7.8). After incubation DTBP was removed by repeated washing of the red cells in PBS (IEC Centra centrifuge for 10 min at 1008×g). Reversal of the cross-linking was carried out at room temperature with the reducing agent dithioerythritol (DTT) at a concentration of 10 mM in PBS (9 vol reducing solution: 1 vol packed cells) for 20 min or as indicated in the figure legends. DTT was removed by repeated washing of the red cells in PBS (IEC Centra centrifuge for 10 min at 1008×g). CO-treatment was reversed at room temperature using a hollow fiber membrane oxygenator model Capiox 308. Erythrocytes were processed through the oxygenator for 1 h. Saturation with oxygen (92%) was reached as detected with a CO-oximeter.
Erythrocytes were cross-linked with DTBP at different concentrations for different incubation times. 1 ml of the erythrocyte suspension was taken out at regular incubation times centrifuged and DTBP was removed (Eppendorf centrifuge for 3 min at 3000×g). Distilled water (1 ml) was added to the remaining packed cells. After 30 min the cells were again centrifugated (Eppendorf centrifuge for 3 min at 3000×g), and the supernatants were processed for hemolysis measurements. For determination of hemolysis the cyanmethemoglobin method was applied (see Brown in “Hematology: principles and procedures” pp. 29-31 (Lea and Febiger, eds., 1984)). Absorbance was measured at 540 nm and percent hemolysis was determined by Equation (1), supra, where the control sample was lysed in distilled water.
Erythrocyte stability in distilled water was tested after crosslinking reversal as well. Red blood cells were first cross-linked with DTBP then treated with DTT at different concentrations (from 1 to 10 mM) for different incubation times (from 5 to 20 min). Hemolysis in distilled water was measured as described above.

Human erythrocytes [6] = test: 'gravity-driven' filtration assay of erythrocyte deformability (5 μm pore filter); type: cell-based
Procedure: The deformability of erythrocytes after crosslinking with diamide and its reversal with dithioerythritol is measured using a “gravity-driven” filtration assay. Diluted erythrocyte suspensions are passed through a 5 μm pore filter The relative filtration index is determined using the following expression: [formula] […] Human erythrocytes subjected to crosslinking with diamide and subsequent reversal of the crosslinking dithioeiythritol were passed through a 5 μm pore filter. Relative filtration index was determined.

erythrocytes [7] = test: Assay of capacity for shape change (LPC-induced echinocytosis, microscopy); type: cell-based, human
Procedure: Microscopy. Cross-linked and reversed cells were prepared as described in the section on erythrocyte preparation, etc., with the addition of 0.5% bovine serum albumin to the solution prior microscopic examination. Cells were examined using an Nikon Optiphot, equipped with PlanApo 20×objective.
Assay of capacity for shape change. To induce echinocytosis ([…]), erythrocytes were incubated with 10μg/ml LPC for 2 min at room temperature. Erythrocytes were pretreated with 5 mM DTBP for 1 h and then subjected to 10 μg/ml LPC treatment. Microscopic examination of cell morphology was performed. Erythrocytes were pretreated with 5 mM DTBP for 1 h, reversed with 10 mM DTT for 20 min and then subjected to 10 μg/ml LPC treatment. Microscopic examination followed. Erythrocyte response to LPC of normal, cross-linked and reversed cells was compared.

Human erythrocytes [8] = test: Freeze-thaw damage (percentage hemolysis after freezing at −20° C.); type: cell-based; settings: 5 mM diamide for 1 h at room temperature; 1 h freezing at −20° C.; FIG. 2
Procedure: Erythrocytes pre-treated with diamide were frozen immediately or after 3 h of incubation in the freezing medium (glucose 200 mM, raffinose 139 mM, sodium citrate 33 mM, sodium phosphate dibasic 12 mM, sodium phosphate monobasic 2.9 mM, ammonium phosphate 40 mM, adenine 2 mM) to allow loading with glucose. Freezing was carried out at −20° C. in a freezer for […] and samples were thawed in a water bath at room temperature.
After completion of the freeze-thaw cycle samples were centrifugated. After centrifugation (Eppendorfcentrifuge for 3 min at 3000×g) the supernatants were processed for hemolysis measurements. For determination of hemolysis the Cyanmethemoglobin method was applied. Absorption was read at 540 nm using a Hewlett Packard spectrophotometer. Percentage hemolysis was determined by Equation 1, supra. Percentage hemolysis was taken as a measure for freeze-thaw damage.
Human erytirocytes were pre-treated at room temperature with 5 mM diamide for 1 h. After the incubation was completed the unreacted reagent was removed by a washing procedure and the cells were re-suspended in a freezing medium. Erythrocytes were frozen immediately or after three hours of incubation in the freezing medium to allow loading with glucose. Percentage hemolysis represents the freeze-thaw damage after 1 h freezing at −20° C. in a freezer.

Compound: [C-]#[O+] [CO, carbon monoxide]
- methemoglobin formation during freeze-drying (erythrocytes [1]): prevents hemoglobin oxidation to methemoglobin
- oxygen content (Red cells): 0.7 Vol%O2

Compound: O[C@H](CS)[C@@H](O)CS [DTT, dithioerythritol]
- reversal of the effect of DTBP on osmotic fragility (Human erythrocytes [2]): complete reversal
- DImax and O′ after reversal (Red blood cells [3]): restored these indices towards normal values
- Omin (osmolality corresponding to the minimum DI) (Red blood cells [3]): 128 mOsmol/Kg
- amount of ATP present after reversal (Red blood cells [4]): did not change the amount of ATP present
- hemolysis at 10000 µM (Human erythrocytes [5]): 100%
- Relative filtration index (Human erythrocytes [6]; diamide-crosslinked cells, reversal of the cross-linking with 5 mM dithioerythritol): 0.83 ± 0.02
- Relative filtration index (Human erythrocytes [6]; diamide-crosslinked cells, reversal of the cross-linking with 10 mM dithioerythritol): 0.90 ± 0.01
- reversal of shape stabilizing action of DTBP (erythrocytes [7]; 5 mM DTBP 1 h, 10 mM DTT 20 min, then 10 μg/ml LPC): completely reversible

Compound: CN(C)C(=O)/N=N/C(=O)N(C)C [diamide]
- Relative filtration index (Human erythrocytes [6]; Crosslinking with 5 mM diamide, 5 μm pore filter): 0.71 ± 0.03
- Percentage hemolysis (freeze-thaw damage) (Human erythrocytes [8]): cryoprotection of erythrocytes

Compound: lysolecithin [LPC]
- shape change of normal red blood cells (erythrocytes [7]; 10 μg/ml LPC, normal cells): shape change from discocytes to echinocytes
